In brackets after ≈: the same amount, converted by molar mass.

A short description of data set [1]: Toxicity in zebra fish embryos assessed as lethality at 1.5 uM measured after 24 hrs relative to control. The settings on record: zebrafish, in vivo, read-out: Activity. It counts as organism-based, Danio rerio.
Data set [2] is filed under the species Danio rerio. Description: Toxicity in zebra fish embryos assessed as adverse effects at >0.1 uM measured over 96 hrs. It counts as organism-based. To be noted: zebrafish, in vivo.
The species entered for data set [3] is Danio rerio. Description: Toxicity in zebra fish embryos assessed as enlarged yolk sac at 0.1 uM measured after 96 hrs. It counts as organism-based. The settings on record: zebrafish, in vivo.
Data set [4] is filed under the species Danio rerio. As to the kind of experiment: Toxicity in zebra fish embryos assessed as curved tail at 0.1 uM measured after 96 hrs. It counts as organism-based. To be noted: zebrafish, in vivo.
For data set [5], the species on record is Danio rerio. Description: Toxicity in zebra fish embryos assessed as phenotype changes at 0.01 to 2.5 uM measured after 96 hrs. To be noted: zebrafish, in vivo, dose 0.01-2.5 µM. It counts as organism-based.
The species named for data set [6] is Danio rerio. As to the kind of experiment: Toxicity in wild type zebra fish model of polycystic kidney disease assessed as increase in fluorescence intensity at 0.1 uM incubated for 48 hrs in presence of N-phenyl thiourea further treated with PT-yellow for 20 mins followed by dye washout and incubated in solution containing compound for 96 hrs by fluorescence imaging analysis. The settings on record: zebrafish, in vivo. It counts as organism-based.

Data set [7] concerns the target T1, Serine/threonine-protein kinase Nek1 (Homo sapiens) (UniProt Q96PY6).
T1 sequence (whole entry): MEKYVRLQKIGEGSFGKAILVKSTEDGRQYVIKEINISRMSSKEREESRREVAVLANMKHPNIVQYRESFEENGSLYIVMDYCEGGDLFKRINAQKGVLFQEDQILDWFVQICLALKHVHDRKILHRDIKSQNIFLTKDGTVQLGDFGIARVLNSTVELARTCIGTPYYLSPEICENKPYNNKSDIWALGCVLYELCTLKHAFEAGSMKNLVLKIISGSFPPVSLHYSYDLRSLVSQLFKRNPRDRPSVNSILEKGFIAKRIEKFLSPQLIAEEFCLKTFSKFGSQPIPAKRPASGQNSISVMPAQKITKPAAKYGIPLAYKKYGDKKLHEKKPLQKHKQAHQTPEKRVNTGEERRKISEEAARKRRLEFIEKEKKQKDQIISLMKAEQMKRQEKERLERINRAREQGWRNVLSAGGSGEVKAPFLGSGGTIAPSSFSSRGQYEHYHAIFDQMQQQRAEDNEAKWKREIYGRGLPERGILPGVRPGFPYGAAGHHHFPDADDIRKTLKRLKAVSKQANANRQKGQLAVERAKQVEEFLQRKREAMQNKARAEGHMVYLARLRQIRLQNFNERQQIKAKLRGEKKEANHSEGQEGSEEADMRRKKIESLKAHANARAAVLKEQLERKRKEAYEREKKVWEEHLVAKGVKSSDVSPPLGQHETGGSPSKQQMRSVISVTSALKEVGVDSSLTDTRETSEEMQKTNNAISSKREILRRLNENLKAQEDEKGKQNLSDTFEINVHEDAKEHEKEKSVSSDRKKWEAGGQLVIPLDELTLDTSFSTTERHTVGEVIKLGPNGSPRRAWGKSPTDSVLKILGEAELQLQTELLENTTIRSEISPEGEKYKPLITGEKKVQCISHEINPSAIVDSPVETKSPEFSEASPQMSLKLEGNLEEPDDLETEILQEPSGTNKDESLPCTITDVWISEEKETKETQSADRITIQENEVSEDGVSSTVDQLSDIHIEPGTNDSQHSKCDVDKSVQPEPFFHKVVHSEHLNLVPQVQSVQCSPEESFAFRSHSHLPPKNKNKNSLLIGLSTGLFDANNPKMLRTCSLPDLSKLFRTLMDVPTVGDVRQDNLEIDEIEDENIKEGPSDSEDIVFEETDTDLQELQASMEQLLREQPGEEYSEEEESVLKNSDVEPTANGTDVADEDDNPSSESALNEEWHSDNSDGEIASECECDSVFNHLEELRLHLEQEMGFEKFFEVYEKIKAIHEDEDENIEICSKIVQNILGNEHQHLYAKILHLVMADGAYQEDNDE
Description: Inhibition of human NEK1 using myelin basic protein as substrate assessed as residual activity at 1 uM in presence of [gamma-33P]-ATP by radiometric hotspot kinase assay relative to control.

Data set [8] has as its target T2, Serine/threonine-protein kinase Nek1 (Homo sapiens, UniProt Q96PY6).
T2 sequence (Q96PY6 whole entry): T1 sequence (whole entry)
As to the kind of experiment: Inhibition of human NEK1 using myelin basic protein as substrate assessed as residual activity in presence of [gamma-33P]-ATP by radiometric hotspot kinase assay relative to control.

Data set [9] has as its target Cyclin-dependent kinase 2/cyclin E1 (Homo sapiens) (UniProt P24864+P24941). As to the kind of experiment: Inhibition of human recombinant full length C-terminal His6 tagged CDK2/ N-terminal GST-tagged Cyclin E expressed in baculovirus infected Sf21 insect cells using histone H1 as substrate assessed as residual activity at 1 uM pretreated for 20 mins followed by [33P]-ATP addition measured after 120 mins by radiometric hotspot kinase assay relative to control. The settings on record: time 140.0 min.

Data set [10] addresses T3, Serine/threonine-protein kinase Chk1 (Homo sapiens) (UniProt O14757).
T3 sequence (whole entry): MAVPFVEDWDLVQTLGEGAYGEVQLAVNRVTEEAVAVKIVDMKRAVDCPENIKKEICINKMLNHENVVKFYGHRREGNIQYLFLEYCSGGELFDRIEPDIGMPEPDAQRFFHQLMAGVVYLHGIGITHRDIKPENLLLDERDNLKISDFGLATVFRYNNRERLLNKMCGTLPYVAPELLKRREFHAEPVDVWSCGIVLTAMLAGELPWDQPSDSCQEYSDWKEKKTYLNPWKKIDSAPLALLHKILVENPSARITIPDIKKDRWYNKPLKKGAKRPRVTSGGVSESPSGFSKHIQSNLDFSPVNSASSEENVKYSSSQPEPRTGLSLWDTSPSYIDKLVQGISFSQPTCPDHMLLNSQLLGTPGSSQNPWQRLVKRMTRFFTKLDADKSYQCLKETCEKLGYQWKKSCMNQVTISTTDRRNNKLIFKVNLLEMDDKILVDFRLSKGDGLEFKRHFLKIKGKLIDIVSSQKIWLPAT
Description: Inhibition of human recombinant full length N-terminal His tagged CHK1 expressed in baculovirus infected Sf21 insect cells using CHKtide as substrate assessed as residual activity at 1 uM pretreated for 20 mins followed by [33P]-ATP addition measured after 120 mins by radiometric hotspot kinase assay relative to control. To be noted: time 140.0 min.

The target in data set [11] is Vascular endothelial growth factor receptor 2 (Homo sapiens) (UniProt P35968). As to the kind of experiment: Inhibition of human recombinant C-terminal His6 tagged VEGFR2 (789 to 1356 residues) expressed in baculovirus infected insect cells assessed as residual activity at 1 uM pretreated for 20 mins followed by [33P]-ATP addition measured after 120 mins by radiometric hotspot kinase assay relative to control. The settings on record: time 140.0 min.
Vascular endothelial growth factor receptor 2 (Homo sapiens), sequence (P35968 whole entry, the tested form may be a part): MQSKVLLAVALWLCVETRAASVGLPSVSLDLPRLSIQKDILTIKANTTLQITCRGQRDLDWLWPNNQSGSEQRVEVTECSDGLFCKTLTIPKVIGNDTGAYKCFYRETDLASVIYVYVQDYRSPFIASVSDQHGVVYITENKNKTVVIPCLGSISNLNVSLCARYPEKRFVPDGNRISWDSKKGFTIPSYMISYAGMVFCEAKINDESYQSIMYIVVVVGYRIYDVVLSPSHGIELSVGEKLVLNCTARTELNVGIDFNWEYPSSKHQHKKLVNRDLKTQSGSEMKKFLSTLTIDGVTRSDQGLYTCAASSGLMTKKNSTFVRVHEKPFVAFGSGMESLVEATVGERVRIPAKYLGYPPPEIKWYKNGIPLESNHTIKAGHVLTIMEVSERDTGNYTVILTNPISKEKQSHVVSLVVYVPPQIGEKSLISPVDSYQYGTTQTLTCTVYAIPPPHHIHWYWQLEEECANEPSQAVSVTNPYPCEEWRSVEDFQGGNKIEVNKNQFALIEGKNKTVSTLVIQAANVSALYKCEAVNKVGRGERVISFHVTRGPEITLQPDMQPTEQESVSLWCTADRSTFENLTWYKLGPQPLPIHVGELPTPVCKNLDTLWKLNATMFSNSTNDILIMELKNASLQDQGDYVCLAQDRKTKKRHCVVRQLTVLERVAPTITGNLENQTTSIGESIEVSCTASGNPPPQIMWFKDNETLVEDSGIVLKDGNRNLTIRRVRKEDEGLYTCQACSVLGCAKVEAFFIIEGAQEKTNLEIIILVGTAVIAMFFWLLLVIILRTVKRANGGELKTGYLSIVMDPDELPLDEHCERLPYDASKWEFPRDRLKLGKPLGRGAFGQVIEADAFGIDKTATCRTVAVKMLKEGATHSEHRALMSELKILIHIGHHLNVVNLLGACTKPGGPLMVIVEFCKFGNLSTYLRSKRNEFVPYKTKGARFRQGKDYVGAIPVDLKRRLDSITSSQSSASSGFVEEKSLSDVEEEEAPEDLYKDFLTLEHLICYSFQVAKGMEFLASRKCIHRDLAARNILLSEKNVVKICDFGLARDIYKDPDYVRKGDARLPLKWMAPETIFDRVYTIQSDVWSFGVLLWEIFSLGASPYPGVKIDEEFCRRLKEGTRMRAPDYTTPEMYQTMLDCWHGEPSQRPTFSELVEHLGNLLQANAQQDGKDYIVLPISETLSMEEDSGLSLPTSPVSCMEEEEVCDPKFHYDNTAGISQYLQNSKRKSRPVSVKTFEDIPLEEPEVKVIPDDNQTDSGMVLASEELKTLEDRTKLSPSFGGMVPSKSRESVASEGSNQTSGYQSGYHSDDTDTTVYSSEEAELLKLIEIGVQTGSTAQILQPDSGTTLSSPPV

The target of data set [12] is T4, Serine/threonine-protein kinase Nek5 (Homo sapiens) (UniProt Q6P3R8).
T4 sequence (whole entry): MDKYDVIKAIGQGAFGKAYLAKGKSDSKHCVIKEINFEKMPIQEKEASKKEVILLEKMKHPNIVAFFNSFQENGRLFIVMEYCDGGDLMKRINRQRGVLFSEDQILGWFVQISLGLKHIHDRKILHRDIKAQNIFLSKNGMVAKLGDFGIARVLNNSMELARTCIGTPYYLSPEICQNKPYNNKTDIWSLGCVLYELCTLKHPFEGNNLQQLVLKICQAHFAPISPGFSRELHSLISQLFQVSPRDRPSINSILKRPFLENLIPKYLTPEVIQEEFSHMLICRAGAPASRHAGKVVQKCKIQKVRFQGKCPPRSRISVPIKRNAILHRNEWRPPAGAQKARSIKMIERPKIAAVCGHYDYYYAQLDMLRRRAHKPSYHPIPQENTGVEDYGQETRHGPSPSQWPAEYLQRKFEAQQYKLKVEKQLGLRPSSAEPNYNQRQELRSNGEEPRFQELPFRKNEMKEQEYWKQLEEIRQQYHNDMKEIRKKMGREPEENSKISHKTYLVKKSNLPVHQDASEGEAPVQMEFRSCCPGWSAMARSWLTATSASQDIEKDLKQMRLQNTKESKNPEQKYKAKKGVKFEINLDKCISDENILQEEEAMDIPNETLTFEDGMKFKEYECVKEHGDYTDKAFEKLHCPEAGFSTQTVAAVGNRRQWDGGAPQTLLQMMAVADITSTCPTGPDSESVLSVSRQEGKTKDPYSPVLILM
Description: Inhibition of human recombinant NEK5 assessed as residual activity at 1 uM pretreated for 20 mins followed by [33P]-ATP addition measured after 120 mins by radiometric hotspot kinase assay relative to control. The settings on record: time 140.0 min.

Data set [13] deals with Wee1-like protein kinase (Homo sapiens) (UniProt P30291). As to the kind of experiment: Inhibition of human recombinant full length WEE1 expressed in insect cells using MBP as substrate assessed as residual activity at 1 uM pretreated for 20 mins followed by [33P]-ATP addition measured after 120 mins by radiometric hotspot kinase assay relative to control. The settings on record: time 140.0 min.
Wee1-like protein kinase (Homo sapiens), sequence (P30291 whole entry, looked up): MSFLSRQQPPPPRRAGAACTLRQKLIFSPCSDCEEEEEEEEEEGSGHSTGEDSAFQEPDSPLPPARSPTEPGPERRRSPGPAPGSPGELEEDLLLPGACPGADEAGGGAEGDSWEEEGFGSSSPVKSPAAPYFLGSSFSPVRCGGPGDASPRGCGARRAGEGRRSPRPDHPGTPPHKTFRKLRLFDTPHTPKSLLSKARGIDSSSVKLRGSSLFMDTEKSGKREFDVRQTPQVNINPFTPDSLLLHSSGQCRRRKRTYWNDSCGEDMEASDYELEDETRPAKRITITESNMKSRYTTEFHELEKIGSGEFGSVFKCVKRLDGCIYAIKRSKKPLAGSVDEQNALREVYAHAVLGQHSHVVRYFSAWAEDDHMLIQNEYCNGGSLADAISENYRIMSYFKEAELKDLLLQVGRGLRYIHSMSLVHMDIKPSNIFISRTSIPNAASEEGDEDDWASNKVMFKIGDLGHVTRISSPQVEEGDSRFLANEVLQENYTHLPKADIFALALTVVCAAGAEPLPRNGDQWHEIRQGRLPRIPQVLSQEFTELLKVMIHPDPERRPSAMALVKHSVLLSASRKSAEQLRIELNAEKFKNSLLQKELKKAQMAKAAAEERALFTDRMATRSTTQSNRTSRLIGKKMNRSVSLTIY

A short description of data set [14]: Solubility of the compound in E3 medium with 0.2% DMSO by DAD-HPLC based shake flask method. It counts as physicochemical.
The nature of data set [15]: Solubility of the compound in DMEM with 1% DMSO by DAD-HPLC based shake flask method. It counts as physicochemical.
Data set [16] is described as follows: Stability of the compound in DMEM measured after 48 hrs by DAD-HPLC method. To be noted: read-out: Stability. It counts as physicochemical.
For data set [17], the species on record is Danio rerio. Description: Toxicity in zebra fish embryos assessed as overall survival at 0.01 to 2.5 uM measured after 96 hrs. It counts as organism-based. The settings on record: zebrafish, in vivo, dose 0.01-2.5 µM.
For data set [18], the species on record is Danio rerio. As to the kind of experiment: Toxicity in wild type zebra fish model of polycystic kidney disease assessed as increase in fluorescence intensity at 2.5 uM incubated for 48 hrs in presence of N-phenyl thiourea further treated with PT-yellow for 20 mins followed by dye washout and incubated in solution containing compound for 96 hrs by fluorescence imaging analysis. It counts as organism-based. The settings on record: zebrafish, in vivo.

Data set [19] is filed under the species Danio rerio. As to the kind of experiment: Toxicity in wild type zebra fish model of polycystic kidney disease assessed as minor tubular volume expansion at 2.5 uM incubated for 48 hrs in presence of N-phenyl thiourea further treated with PT-yellow for 20 mins followed by dye washout and incubated in solution containing compound for 96 hrs by fluorescence imaging analysis. It counts as organism-based. To be noted: zebrafish, in vivo.

Data set [20] is described as follows: Permeability across apical to basolateral side in human Caco-2 cells at pH 6.5 at 1 uM. It counts as ADME, cell-based. The settings on record: Caco-2, pH 6.5, read-out: permeability.
Data set [21] in a line: Permeability across apical to basolateral side in human Caco-2 cells at pH 6.5 assessed as compound recovery at 1 uM. The settings on record: Caco-2, pH 6.5, read-out: Drug recovery. It counts as ADME, cell-based.
Data set [22] is described as follows: Permeability across basolateral to apical side in human Caco-2 cells at pH 7.4 at 1 uM. It counts as ADME, cell-based. To be noted: Caco-2, pH 7.4, read-out: permeability.
A short description of data set [23]: Permeability across basolateral to apical side in human Caco-2 cells at pH 7.4 assessed as compound recovery at 1 uM. It counts as ADME, cell-based. The settings on record: Caco-2, pH 7.4, read-out: Drug recovery.
The species entered for data set [24] is Danio rerio. As to the kind of experiment: Toxicity in zebra fish embryos assessed as reduction in heart beat at 1 uM measured every 24 hrs for 120 hrs. It counts as organism-based. The settings on record: zebrafish, in vivo.

With `Cc1nc(N)sc1-c1ccnc(Nc2cccc([N+](=O)[O-])c2)n1`, the mortality at 24 h, 1.5 µM in data set [1] stood at 100%. Further, the Activity entry in data set [2] was “Toxic”; in [3], “Toxic”; in data set [4], “Toxic”; in data set [5], “Non-Toxic”; in [6], “Toxic”.
As to `COC(=O)c1cccc(-c2cnc3[nH]cc(-c4ccncc4)c3c2)c1`, the Activity in [7] came to 13%; in [9], 1.8%; in data set [10] it was 85%; in data set [11], 79.4%; in data set [12], 58.5%; in [13], 78.9%. Besides, the results for the Activity result in data set [17], in data set [18] and in data set [19] were “Non-Toxic”, “Toxic” and “Toxic”, respectively. Moreover, the IC50 in [8] was 0.14 µM. The solubility in data set [14] was 30.9 µM (≈ 10.2 µg/mL); in data set [15] it was 34 µM (≈ 11.2 µg/mL). In addition, in [16], the remaining at 48 h was found to be 88%.
Turning to `COC(=O)c1cccc(-c2cnc3[nH]cc(-c4cncnc4)c3c2)c1`, the Activity in [7] worked out at 5.89%; in [9], 22.3%; in data set [10], 73.8%; in data set [11], 61.3%; in data set [12] it was 23.3%; in data set [13], 76.2%. In addition, the IC50 in [8] came to 0.0625 µM. Further, the figures for the solubility in [14] and in data set [15] were 4.6 µM (≈ 1.52 µg/mL) and 28.6 µM (≈ 9.45 µg/mL), respectively. Further, in data set [16], the remaining at 48 h was determined as 72%. For the same molecule, the Papp A→B at 1 µM in data set [20] was found to be 0.37 ×10⁻⁶ cm/s. For the same molecule, the values for the recovery at 1 µM in data set [21] and in [23] were 1.5% and 41.1%, respectively. Moreover, the Papp B→A at 1 µM in data set [22] was 0.21 ×10⁻⁶ cm/s.
As for `COC(=O)c1cccc(-c2cnc3[nH]cc(-c4cccc(OC)c4)c3c2)c1`, the Activity in data set [7] is 12.4%; in [9] it was 19.3%; in [10], > 100%; in data set [11], 94.1%; in data set [12], 90%; in [13] it was > 100%. The Activity entry in data set [24] was “Non-Toxic”. Moreover, in [8], the IC50 amounted to 0.166 µM. Further, the solubility was 1 µM (≈ 0.358 µg/mL) in data set [14] and 2 µM (≈ 0.717 µg/mL) in data set [15]. The remaining at 48 h in data set [16] stood at 97%.

For the origin of these results see ChEMBL document CHEMBL5053535, “Design, synthesis and biological evaluation of novel aminopyrazole- and 7-azaindole-based Nek1 inhibitors and their effects on zebrafish kidney development” (Bioorg Med Chem Lett, 2021).
